Test results published in PubChem BioAssay (NCI).
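Cells were grown in 96-well plates and exposed to each compound for 48 hours at five concentrations; endpoints were interpolated linearly between bracketing concentrations, or set to the highest concentration if not reached. GI50: concentration for 50% inhibition of growth. TGI is the concentration that stops growth completely.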

Assays:
Assay in all cases: NCI anticancer screen, dose series, 48 h
[1] = tested on: SNB-75 CNS
[2] = tested on: LOX IMVI melanoma
[3] = tested on: NCI-H226 lung
[4] = tested on: SK-MEL-5 melanoma
[5] = tested on: HCC-2998 colon
[6] = tested on: NCI-H522 lung
[7] = tested on: HS 578T breast
[8] = tested on: NCI/ADR-RES ovarian
[9] = tested on: SF-295 CNS
[10] = tested on: CCRF-CEM leukemia
[11] = tested on: MOLT-4 leukemia
[12] = tested on: ACHN renal
[13] = tested on: RXF 393 renal
[14] = tested on: RPMI-8226 leukemia
[15] = tested on: BT-549 breast
[16] = tested on: KM12 colon
[17] = tested on: MDA-MB-231 breast
[18] = tested on: CAKI-1 renal
[19] = tested on: HCT-116 colon
[20] = tested on: 786-0 renal
[21] = tested on: HT29 colon
[22] = tested on: UACC-257 melanoma
[23] = tested on: OVCAR-5 ovarian
[24] = tested on: K-562 leukemia
[25] = tested on: A498 renal
[26] = tested on: DU-145 prostate
[27] = tested on: MDA-MB-435
[28] = tested on: PC-3 prostate
[29] = tested on: HL-60(TB) leukemia
[30] = tested on: UACC-62 melanoma
[31] = tested on: T-47D breast
[32] = tested on: SW-620 colon
[33] = tested on: U251 CNS
[34] = tested on: SF-539 CNS
[35] = tested on: SF-268 CNS
[36] = tested on: SK-MEL-2 melanoma
[37] = tested on: SK-MEL-28 melanoma
[38] = tested on: EKVX NSCLC
[39] = tested on: OVCAR-4 ovarian
[40] = tested on: OVCAR-8 ovarian
[41] = tested on: A549 NSCLC
[42] = tested on: SNB-19 CNS
[43] = tested on: NCI-H23 lung
[44] = tested on: SK-OV-3 ovarian
[45] = tested on: HCT-15 colon
[46] = tested on: IGROV1 ovarian
[47] = tested on: NCI-H460 lung
[48] = tested on: UO-31 renal
[49] = tested on: MCF7 breast
[50] = tested on: MALME-3M melanoma
[51] = tested on: SN12C renal
[52] = tested on: HOP-62 NSCLC
[53] = tested on: COLO 205 colon
[54] = tested on: HOP-92 NSCLC
[55] = tested on: M14 melanoma
[56] = tested on: OVCAR-3 ovarian
[57] = tested on: TK-10 renal

`CCOC(=O)N1CCN(/[N+]([O-])=N/Oc2ccc([N+](=O)[O-])cc2[N+](=O)[O-])CC1` showed a GI50 [1] of 4.92 µM, a TGI [1] of 18.8 µM and a GI50 [2] of 258 nM. For the same compound, the TGI [2] was > 100 µM, the GI50 [3] was 3.77 µM and the TGI [3] was 16.7 µM. The GI50 [4] was 2770 nM, the TGI [4] was 12.1 µM and the GI50 [5] was 1120 nM. The TGI [5] was 2330 nM, the GI50 [6] was 4.36 µM and the TGI [6] was 22.4 µM. For the same compound, the GI50 [7] was 5.84 µM, the TGI [7] was 37.4 µM and the GI50 [8] was 3.88 µM. For the same compound, the TGI [8] was 14.9 µM, the GI50 [9] was 1730 nM and the TGI [9] was 4.56 µM. It also gave a GI50 [10] of 158 nM, a TGI [10] of 12.2 µM and a GI50 [11] of 482 nM. For the same compound, the GI50 [12] was 479 nM, the TGI [12] was 1370 nM and the GI50 [13] was 1950 nM. It also gave a TGI [13] of 5.9 µM, a GI50 [14] of 340 nM and a TGI [14] of 12.9 µM. For the same compound, the GI50 [15] was 2620 nM, the TGI [15] was 18.6 µM and the GI50 [16] was 1780 nM. For the same compound, the TGI [16] was 8.56 µM, the GI50 [17] was 1990 nM and the TGI [17] was 7.08 µM. For the same compound, the GI50 [18] was 521 nM, the TGI [18] was 1960 nM and the GI50 [19] was 929 nM. It also gave a TGI [19] of 3.66 µM, a GI50 [20] of 322 nM and a TGI [20] of 1640 nM. The GI50 [21] was 322 nM, the TGI [21] was 15.7 µM and the GI50 [22] was 2270 nM. It also gave a TGI [22] of 7 µM, a GI50 [23] of 2160 nM and a TGI [23] of 9.09 µM. The GI50 [24] was 153 nM, the TGI [24] was 3.72 µM and the GI50 [25] was 17.5 µM. For the same compound, the TGI [25] was 35.6 µM, the GI50 [26] was 4.73 µM and the TGI [26] was 19.2 µM. For the same compound, the GI50 [27] was 315 nM, the TGI [27] was 2980 nM and the GI50 [28] was 3.48 µM. The TGI [28] was 16.7 µM, the GI50 [29] was 76.1 nM and the TGI [29] was 201 nM. It also gave a GI50 [30] of 2650 nM, a TGI [30] of 12.8 µM and a GI50 [31] of 8 µM. For the same compound, the TGI [31] was > 67.1 µM, the GI50 [32] was 434 nM and the TGI [32] was 35.7 µM. The GI50 [33] was 1550 nM, the TGI [33] was 21.5 µM and the GI50 [34] was 424 nM. For the same compound, the TGI [34] was 20.9 µM, the GI50 [35] was 3.86 µM and the TGI [35] was 10.6 µM. For the same compound, the GI50 [36] was 7.08 µM, the TGI [36] was 25.9 µM and the GI50 [37] was 1820 nM. The TGI [37] was 6.69 µM, the GI50 [38] was 12.6 µM and the TGI [38] was 32.6 µM. The GI50 [39] was 438 nM, the TGI [39] was 1780 nM and the GI50 [40] was 3.49 µM. It also gave a TGI [40] of 12.9 µM, a GI50 [41] of 3.63 µM and a TGI [41] of 14.1 µM. For the same compound, the GI50 [42] was 6.68 µM, the TGI [42] was 20.7 µM and the GI50 [43] was 1820 nM. It also gave a TGI [43] of 3.69 µM, a GI50 [44] of 5.61 µM and a TGI [44] of 18.4 µM. It also gave a GI50 [45] of 346 nM, a TGI [45] of 1460 nM and a GI50 [46] of 9.04 µM. The TGI [46] was 30.2 µM, the GI50 [47] was 4.41 µM and the TGI [47] was 18 µM. The GI50 [48] was 10.6 µM, the TGI [48] was 23.3 µM and the GI50 [49] was 365 nM. It also gave a TGI [49] of 8.16 µM, a GI50 [50] of 1590 nM and a TGI [50] of 4.05 µM. It also gave a GI50 [51] of 1450 nM, a TGI [51] of 6.92 µM and a GI50 [52] of 3.14 µM. It also gave a TGI [52] of 13.6 µM, a GI50 [53] of 349 nM and a TGI [53] of 14.4 µM. The GI50 [54] was 122 nM, the TGI [54] was 3.75 µM and the GI50 [55] was 328 nM. For the same compound, the TGI [55] was 1430 nM, the GI50 [56] was 542 nM and the TGI [56] was 1820 nM. For the same compound, the GI50 [57] was 406 nM and the TGI [57] was 5.57 µM.
